From patent publication US20090226527A1, “Particulate-stabilized injectable pharmacutical compositions of posaconazole” (priority 2004, published 2009)
Values after ≈ are worked out from the molar mass of the structure shown.

How the values were obtained:
[1] = tested on: infectious agents (strains tested); assay: microbe, parasite or virus in culture; assay type: cell-based
[2] = Solubility of Posaconazole in water; assay type: physicochemical

In the case of `CCC([C@@H](C)O)n1ncn(-c2ccc(N3CCN(c4ccc(OC[C@@H]5CO[C@@](Cn6cncn6)(c6ccc(F)cc6F)C5)cc4)CC3)cc2)c1=O` (stereo partly shown) [Posaconazole], the MIC ([1]; Exophiala moniliae, read-out: MIC[90]) is reported as 0.016 µg/mL (≈ 0.0228 µM), the MIC ([1]; Fonsecae pedrosoi, read-out: Geometric Mean MIC) is reported as 0.25 µg/mL (≈ 0.357 µM) and the MIC ([1]; Fonsecae pedrosoi, read-out: MIC[90]) is reported as 0.25 µg/mL (≈ 0.357 µM). It also gave an MIC ([1]; Fusarium spp, read-out: Geometric Mean MIC) of 2.32 µg/mL (≈ 3.31 µM), an MIC ([1]; Fusarium spp, read-out: MIC[90]) of 16 µg/mL (≈ 22.8 µM) and an MIC ([1]; Hansenula anomala, Pichia anomala, read-out: Geometric Mean MIC) of 0.689 µg/mL (≈ 0.983 µM). It also gave an MIC ([1]; Hansenula anomala, Pichia anomala, read-out: MIC[90]) of 1 µg/mL (≈ 1.43 µM), an MIC ([1]; Histoplasma capsulatum, read-out: Geometric Mean MIC, Histoplasma capsulatum) of 0.038 µg/mL (≈ 0.0542 µM) and an MIC ([1]; Histoplasma capsulatum, read-out: MIC[90], Histoplasma capsulatum) of 0.25 µg/mL (≈ 0.357 µM). It also gave an MIC ([1]; Kluyveromyces marxianus, Candida kefyr, read-out: Geometric Mean MIC) of 0.081 µg/mL (≈ 0.116 µM), an MIC ([1]; Kluyveromyces marxianus, Candida kefyr, read-out: MIC[90]) of 0.25 µg/mL (≈ 0.357 µM) and an MIC ([1]; Kluyveromyces marxianus, read-out: Geometric Mean MIC) of 0.079 µg/mL (≈ 0.113 µM). It also gave an MIC ([1]; Kluyveromyces marxianus, read-out: MIC[90]) of 0.063 to 0.25 µg/mL (≈ 0.0899 to 0.357 µM), an MIC ([1]; Kodamaea ohmeri, Pichia ohmeri, read-out: Geometric Mean MIC) of 0.016 µg/mL (≈ 0.0228 µM) and an MIC ([1]; Kodamaea ohmeri, Pichia ohmeri, read-out: MIC[90]) of 0.016 µg/mL (≈ 0.0228 µM). It also gave an MIC ([1]; Lodderomyces parapsilosis, Candida parapsilosis, read-out: Geometric Mean MIC) of 0.073 µg/mL (≈ 0.104 µM), an MIC ([1]; Lodderomyces parapsilosis, Candida parapsilosis, read-out: MIC[90]) of 0.125 µg/mL (≈ 0.178 µM) and an MIC ([1]; Meyerozyma guilliermondii, Candida guilliermondii, read-out: Geometric Mean MIC) of 0.178 µg/mL (≈ 0.254 µM). For the same compound, the MIC ([1]; Meyerozyma guilliermondii, Candida guilliermondii, read-out: MIC[90]) was 0.5 µg/mL (≈ 0.713 µM), the MIC ([1]; Microsporum audouinii, read-out: Geometric Mean MIC) was 0.25 µg/mL (≈ 0.357 µM) and the MIC ([1]; Microsporum audouinii, read-out: MIC[90]) was 0.25 µg/mL (≈ 0.357 µM). The MIC ([1]; Microsporum canis, read-out: Geometric Mean MIC) was 0.034 µg/mL (≈ 0.0485 µM), the MIC ([1]; Microsporum canis, read-out: MIC[90]) was 0.5 µg/mL (≈ 0.713 µM) and the MIC ([1]; Mucor spp, read-out: Geometric Mean MIC) was 0.694 µg/mL (≈ 0.99 µM). For the same compound, the MIC ([1]; Mucor spp, read-out: MIC[90]) was 16 µg/mL (≈ 22.8 µM), the MIC ([1]; Nakaseomyces glabratus, Candida glabrata, read-out: Geometric Mean MIC) was 0.672 µg/mL (≈ 0.959 µM) and the MIC ([1]; Nakaseomyces glabratus, Candida glabrata, read-out: MIC[90]) was 2 µg/mL (≈ 2.85 µM). For the same compound, the MIC ([1]; Nannizzia fulva, Microsporum fulvum, read-out: Geometric Mean MIC) was 0.5 µg/mL (≈ 0.713 µM), the MIC ([1]; Nannizzia fulva, Microsporum fulvum, read-out: MIC[90]) was 0.5 µg/mL (≈ 0.713 µM) and the MIC ([1]; Nannizzia gypsea, Microsporum gypseum, read-out: Geometric Mean MIC) was 0.042 µg/mL (≈ 0.0599 µM). It also gave an MIC ([1]; Nannizzia gypsea, Microsporum gypseum, read-out: MIC[90]) of 0.008 to 0.5 µg/mL (≈ 0.0114 to 0.713 µM), an MIC ([1]; Nannizzia persicolor, Microsporum persicolor, read-out: Geometric Mean MIC) of 0.25 µg/mL (≈ 0.357 µM) and an MIC ([1]; Nannizzia persicolor, Microsporum persicolor, read-out: MIC[90]) of 0.25 µg/mL (≈ 0.357 µM). It also gave an MIC ([1]; Paecilomyces spp, read-out: Geometric Mean MIC) of 0.239 µg/mL (≈ 0.341 µM), an MIC ([1]; Paecilomyces spp, read-out: MIC[90]) of 0.5 µg/mL (≈ 0.713 µM) and an MIC ([1]; Papiliotrema laurentii, Cryptococcus laurentii, read-out: Geometric Mean MIC) of 0.095 µg/mL (≈ 0.136 µM). The MIC ([1]; Papiliotrema laurentii, Cryptococcus laurentii, read-out: MIC[90]) was 0.008 to 0.5 µg/mL (≈ 0.0114 to 0.713 µM), the MIC ([1]; Paracoccidioides brasiliensis, read-out: Geometric Mean MIC, Paracoccidioides brasiliensis) was 0.048 µg/mL (≈ 0.0685 µM) and the MIC ([1]; Paracoccidioides brasiliensis, read-out: MIC[90], Paracoccidioides brasiliensis) was 0.125 µg/mL (≈ 0.178 µM). The MIC ([1]; Penicillium spp, read-out: Geometric Mean MIC) was 0.308 µg/mL (≈ 0.44 µM), the MIC ([1]; Penicillium spp, read-out: MIC[90]) was 1 µg/mL (≈ 1.43 µM) and the MIC ([1]; Pichia etchel, read-out: Geometric Mean MIC) was 0.125 µg/mL (≈ 0.178 µM). It also gave an MIC ([1]; Pichia etchel, read-out: MIC[90]) of 0.125 µg/mL (≈ 0.178 µM), an MIC ([1]; Pichia kudriavzevii, Candida krusei, read-out: Geometric Mean MIC) of 0.335 µg/mL (≈ 0.478 µM) and an MIC ([1]; Pichia kudriavzevii, Candida krusei, read-out: MIC[90]) of 1 µg/mL (≈ 1.43 µM). For the same compound, the MIC ([1]; Pleurothecium obovoideum, Ramichloridium obovoideum, read-out: Geometric Mean MIC) was 0.044 µg/mL (≈ 0.0628 µM), the MIC ([1]; Pleurothecium obovoideum, Ramichloridium obovoideum, read-out: MIC[90]) was 0.031 to 0.063 µg/mL (≈ 0.0442 to 0.0899 µM) and the MIC ([1]; Rhizomucor spp, read-out: Geometric Mean MIC) was 0.016 µg/mL (≈ 0.0228 µM). For the same compound, the MIC ([1]; Rhizomucor spp, read-out: MIC[90]) was 0.016 µg/mL (≈ 0.0228 µM), the MIC ([1]; Rhizopus spp, read-out: Geometric Mean MIC) was 1 µg/mL (≈ 1.43 µM) and the MIC ([1]; Rhizopus spp, read-out: MIC[90]) was 4 µg/mL (≈ 5.71 µM). For the same compound, the MIC ([1]; Saccharomyces cerevisiae, read-out: Geometric Mean MIC) was 0.249 µg/mL (≈ 0.355 µM), the MIC ([1]; Saccharomyces cerevisiae, read-out: MIC[90]) was 1 µg/mL (≈ 1.43 µM) and the MIC ([1]; Scedosporium apiospermum, read-out: Geometric Mean MIC) was 0.173 µg/mL (≈ 0.247 µM). It also gave an MIC ([1]; Scedosporium apiospermum, read-out: MIC[90]) of 1 µg/mL (≈ 1.43 µM), an MIC ([1]; Scedosporium boydii, Pseudallescheria boydii, read-out: Geometric Mean MIC) of 0.365 µg/mL (≈ 0.521 µM) and an MIC ([1]; Scedosporium boydii, Pseudallescheria boydii, read-out: MIC[90]) of 1 µg/mL (≈ 1.43 µM). For the same compound, the MIC ([1]; Sporothrix schenckii, read-out: Geometric Mean MIC) was 0.771 µg/mL (≈ 1.1 µM), the MIC ([1]; Sporothrix schenckii, read-out: MIC[90]) was 2 µg/mL (≈ 2.85 µM) and the MIC ([1]; Trichophyton mentagrophytes, read-out: Geometric Mean MIC) was 0.036 µg/mL (≈ 0.0514 µM). It also gave an MIC ([1]; Trichophyton mentagrophytes, read-out: MIC[90]) of 0.125 µg/mL (≈ 0.178 µM), an MIC ([1]; Trichophyton rubrum, Trichophyton raubitschekii, read-out: Geometric Mean MIC) of 0.25 µg/mL (≈ 0.357 µM) and an MIC ([1]; Trichophyton rubrum, Trichophyton raubitschekii, read-out: MIC[90]) of 0.25 µg/mL (≈ 0.357 µM). For the same compound, the MIC ([1]; Trichophyton rubrum, read-out: Geometric Mean MIC) was 0.047 µg/mL (≈ 0.0671 µM), the MIC ([1]; Trichophyton rubrum, read-out: MIC[90]) was 0.25 µg/mL (≈ 0.357 µM) and the MIC ([1]; Trichophyton soudanense, read-out: Geometric Mean MIC) was 0.5 µg/mL (≈ 0.713 µM). It also gave an MIC ([1]; Trichophyton soudanense, read-out: MIC[90]) of 0.5 µg/mL (≈ 0.713 µM), an MIC ([1]; Trichophyton spp, read-out: Geometric Mean MIC) of 0.036 µg/mL (≈ 0.0514 µM) and an MIC ([1]; Trichophyton spp, read-out: MIC[90]) of 0.064 µg/mL (≈ 0.0913 µM). For the same compound, the MIC ([1]; Trichophyton tonsurans, read-out: Geometric Mean MIC) was 0.029 µg/mL (≈ 0.0414 µM), the MIC ([1]; Trichophyton tonsurans, read-out: MIC[90]) was 0.125 µg/mL (≈ 0.178 µM) and the MIC ([1]; Trichosporon spp, read-out: Geometric Mean MIC) was 0.63 µg/mL (≈ 0.899 µM). It also gave an MIC ([1]; Trichosporon spp, read-out: MIC[90]) of 0.5 to 1 µg/mL (≈ 0.713 to 1.43 µM), an MIC ([1]; Yarrowia lipolytica, read-out: Geometric Mean MIC) of 0.144 µg/mL (≈ 0.205 µM) and an MIC ([1]; Yarrowia lipolytica, read-out: MIC[90]) of 0.016 to 1 µg/mL (≈ 0.0228 to 1.43 µM). For the same compound, the Solubility in water [2] was “minimally soluble in water”.
